Entries after “also recorded” stand apart in the source; their conditions may differ.
Columns and labels:
progesterone receptor = target: T1, progesterone receptor (Homo sapiens, UniProt P06401); test: Progesterone receptor transactivation, luciferase reporter in HeLa cells
T1 sequence (P06401 1-933): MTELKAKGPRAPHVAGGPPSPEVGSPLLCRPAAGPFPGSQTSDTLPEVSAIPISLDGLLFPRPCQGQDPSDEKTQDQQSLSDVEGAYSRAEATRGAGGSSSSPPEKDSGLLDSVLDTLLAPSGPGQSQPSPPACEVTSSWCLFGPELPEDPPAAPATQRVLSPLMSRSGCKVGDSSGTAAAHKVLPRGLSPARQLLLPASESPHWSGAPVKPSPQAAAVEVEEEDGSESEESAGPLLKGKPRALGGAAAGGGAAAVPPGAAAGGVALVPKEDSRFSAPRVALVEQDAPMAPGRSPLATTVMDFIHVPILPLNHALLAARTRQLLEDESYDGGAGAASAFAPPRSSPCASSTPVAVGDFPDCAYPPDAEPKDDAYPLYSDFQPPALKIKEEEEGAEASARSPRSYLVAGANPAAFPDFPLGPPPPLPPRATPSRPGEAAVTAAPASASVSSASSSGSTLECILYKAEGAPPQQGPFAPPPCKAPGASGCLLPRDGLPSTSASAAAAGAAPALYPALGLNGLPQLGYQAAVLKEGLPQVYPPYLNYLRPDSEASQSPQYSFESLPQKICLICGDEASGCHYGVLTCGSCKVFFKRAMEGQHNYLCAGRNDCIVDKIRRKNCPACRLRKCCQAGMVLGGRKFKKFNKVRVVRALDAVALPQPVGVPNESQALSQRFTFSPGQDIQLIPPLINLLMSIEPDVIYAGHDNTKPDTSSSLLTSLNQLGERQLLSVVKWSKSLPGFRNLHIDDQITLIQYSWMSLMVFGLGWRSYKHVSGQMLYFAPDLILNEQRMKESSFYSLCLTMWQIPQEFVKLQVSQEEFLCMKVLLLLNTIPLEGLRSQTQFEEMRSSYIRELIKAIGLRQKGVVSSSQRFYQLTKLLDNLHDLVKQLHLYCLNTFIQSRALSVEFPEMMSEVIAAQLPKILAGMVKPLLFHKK
Protocol: (§1) Thus, HeLa cells were cotransfected with an androgen receptor (AR) expression plasmid, a plasmid for expression of β-galactosidase (β-gal) and a luciferase reporter plasmid, ARE-Tata-luc (Jenster 1997) and then incubated with ethanol as a solvent control, or with the herbal extracts indicated in Table 1. Herbal extracts were added to the cells six hours after transfection. Thirty-six hours later, the cells were harvested and cell extracts assayed for luciferase activity.
(§2) The DNA mix contained an AR expression vector, a reporter gene vector (ARE-Tata-Luc) and a βGal vectors, the last for purposes of normalizing results for the transfection efficiency. The AR expression vector comprises a cDNA encoding AR and expressed from a SV40 promoter and a rabbit β-globin polyadenylation signal, all cloned in a pBR328 vector. The β-gal vector comprises a bacterial lacZ gene under control of an SV40 promoter-enhancer. The DNA mix was preincubated for 45 min at room temperature with lipofectamine (Promega, Madison, Wis.) in a 400 μl serum-free medium. […] Cell lysates (100 μl) were added to 20 μl of luciferase substrate and luciferase activity measured with a luminometer. Transfection efficiency was assessed by βGal activity and luciferase activity normalized to the protein content of the cell lysates. Total protein in the supernatant was quantified with bovine serum albumin as the standard.

androgen receptor = target: T2, androgen receptor (Homo sapiens, UniProt P10275); conditions: 0.3 to 10 nM; 3 nM tritiated testosterone
T2 sequence (P10275 1-920): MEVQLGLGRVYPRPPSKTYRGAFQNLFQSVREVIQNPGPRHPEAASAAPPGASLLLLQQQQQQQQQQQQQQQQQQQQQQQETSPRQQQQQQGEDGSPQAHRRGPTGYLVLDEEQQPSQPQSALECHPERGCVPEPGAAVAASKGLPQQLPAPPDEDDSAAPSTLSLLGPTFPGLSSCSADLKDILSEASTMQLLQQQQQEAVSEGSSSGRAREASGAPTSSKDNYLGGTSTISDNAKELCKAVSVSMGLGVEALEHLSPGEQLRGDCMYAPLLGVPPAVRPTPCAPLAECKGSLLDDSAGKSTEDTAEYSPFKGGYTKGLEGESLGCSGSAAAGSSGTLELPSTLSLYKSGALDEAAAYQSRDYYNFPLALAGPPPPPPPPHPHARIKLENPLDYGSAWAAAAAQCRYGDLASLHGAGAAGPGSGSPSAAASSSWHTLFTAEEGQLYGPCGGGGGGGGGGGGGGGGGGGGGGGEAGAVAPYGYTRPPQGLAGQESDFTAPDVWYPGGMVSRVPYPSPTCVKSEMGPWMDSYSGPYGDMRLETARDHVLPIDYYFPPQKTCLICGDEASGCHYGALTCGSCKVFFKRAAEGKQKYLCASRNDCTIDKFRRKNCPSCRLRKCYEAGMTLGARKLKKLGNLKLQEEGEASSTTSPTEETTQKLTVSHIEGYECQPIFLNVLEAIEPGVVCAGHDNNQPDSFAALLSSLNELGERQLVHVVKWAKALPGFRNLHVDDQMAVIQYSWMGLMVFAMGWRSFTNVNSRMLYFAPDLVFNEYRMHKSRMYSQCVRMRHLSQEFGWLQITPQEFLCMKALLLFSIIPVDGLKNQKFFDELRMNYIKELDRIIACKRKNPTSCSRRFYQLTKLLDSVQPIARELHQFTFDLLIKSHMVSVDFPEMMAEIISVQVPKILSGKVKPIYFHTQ

glucocorticoid receptor = target: T3, glucocorticoid receptor (Homo sapiens, UniProt P04150); test: Glucocorticoid receptor transactivation, luciferase reporter in HeLa cells; type: cell-based
T3 construct: expressed in transfected cells
T3 sequence (P04150 1-777): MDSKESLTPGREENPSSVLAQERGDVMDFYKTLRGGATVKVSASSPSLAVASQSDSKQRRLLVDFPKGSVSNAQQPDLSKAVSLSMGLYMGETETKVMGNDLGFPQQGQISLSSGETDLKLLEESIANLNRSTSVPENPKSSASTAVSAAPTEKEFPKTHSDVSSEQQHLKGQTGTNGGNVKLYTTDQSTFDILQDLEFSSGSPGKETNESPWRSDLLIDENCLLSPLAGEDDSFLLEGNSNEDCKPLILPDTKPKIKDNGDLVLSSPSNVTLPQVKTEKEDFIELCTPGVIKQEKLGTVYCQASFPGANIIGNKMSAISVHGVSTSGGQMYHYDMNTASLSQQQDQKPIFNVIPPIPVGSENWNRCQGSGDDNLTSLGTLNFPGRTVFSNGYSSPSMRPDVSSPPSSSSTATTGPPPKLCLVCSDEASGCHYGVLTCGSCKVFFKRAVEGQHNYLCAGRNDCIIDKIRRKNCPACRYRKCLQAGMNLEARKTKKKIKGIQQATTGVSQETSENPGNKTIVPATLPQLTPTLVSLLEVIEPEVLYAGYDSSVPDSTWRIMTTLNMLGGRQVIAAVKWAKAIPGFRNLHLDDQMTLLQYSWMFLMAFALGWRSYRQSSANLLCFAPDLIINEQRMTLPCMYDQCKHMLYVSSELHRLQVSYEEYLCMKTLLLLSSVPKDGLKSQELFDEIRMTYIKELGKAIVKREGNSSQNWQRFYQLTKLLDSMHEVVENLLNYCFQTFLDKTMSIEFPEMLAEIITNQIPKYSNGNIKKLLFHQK
Protocol: as §1, §2

[1] = tested on: ventral prostate gland, immature Wistar rats; test: Growth of the ventral prostate gland in immature Wistar rats; type: in vivo, rat; conditions: testosterone intramuscularly, alone (FIG. 6a)
Protocol: The growth of the ventral prostate gland, an androgen-dependent tissue, in immature Wistar rats was measured.
To determine the androgenic effect of an ethanolic EU extract in animals, the growth of the ventral prostate gland, an androgen-dependent tissue, in immature Wistar rats was measured. […] In this model, exogenous androgen administration can be directly correlated with the growth of the ventral prostate.

## CC(=O)[C@H]1CC[C@H]2[C@@H]3CCC4=CC(=O)CC[C@]4(C)[C@H]3CC[C@]12C [Progesterone, progesterone]
Progesterone receptor; substance alone
  Ratio of Luc activity as percentage (%) of 1 nM ligand: 100%
Progesterone receptor; substance alone (extract, or 1 nM progesterone)
  Luc activity (fold induction): 67 fold

## C[C@]12CCC(=O)C=C1CC[C@@H]1[C@@H]2[C@@H](O)C[C@@]2(C)[C@H]1CC[C@]2(O)C(=O)CO [Cortisol, cortisol]
Androgen receptor
  displacement of tritiated testosterone: does not displace tritiated testosterone
Glucocorticoid receptor; substance alone
  Ratio of Luc activity as percentage (%) of 1 nM ligand: 100%
Glucocorticoid receptor; substance alone (extract, or 1 nM cortisol)
  Luc activity (fold induction): 194 fold

## C[C@]12CC[C@H]3[C@@H](CCC4=CC(=O)CC[C@@]43C)[C@@H]1CC[C@@H]2O [testosterone]
[1]
  prostate weight (per unit body weight): dose-dependent increase in prostate weight; also recorded: dose-dependent increments in prostatic weight

Reference: patent US6905714B2, “Method for modulating steroidogenic activity” (priority 2000, dated 2005)
